Reference: the Kinase Knowledgebase extract (Sharma et al. 2016)

Key:
[1] = molecular target: EGFR (UniProt P00533); settings: for inhibition: concentration not given here
[2] = molecular target: EGFR (murine) (UniProt P00533); settings: fibroblast
[3] = molecular target: EGFR (human) (UniProt P00533); settings: mda468
[4] = molecular target: EGFR (human) (UniProt P00533); settings: a431
[5] = molecular target: EGFR (human) (UniProt P00533); settings: a549
[6] = molecular target: EGFR (human) (UniProt P00533); settings: mdv-7
[7] = molecular target: EGFR (human) (UniProt P00533); settings: mda231
[8] = molecular target: EGFR (human) (UniProt P00533); settings: ht-29
[9] = molecular target: EGFR (murine) (UniProt P00533); settings: fibroblast; remark: listed apart in the source

Sequence of EGFR (P00533 whole entry, looked up): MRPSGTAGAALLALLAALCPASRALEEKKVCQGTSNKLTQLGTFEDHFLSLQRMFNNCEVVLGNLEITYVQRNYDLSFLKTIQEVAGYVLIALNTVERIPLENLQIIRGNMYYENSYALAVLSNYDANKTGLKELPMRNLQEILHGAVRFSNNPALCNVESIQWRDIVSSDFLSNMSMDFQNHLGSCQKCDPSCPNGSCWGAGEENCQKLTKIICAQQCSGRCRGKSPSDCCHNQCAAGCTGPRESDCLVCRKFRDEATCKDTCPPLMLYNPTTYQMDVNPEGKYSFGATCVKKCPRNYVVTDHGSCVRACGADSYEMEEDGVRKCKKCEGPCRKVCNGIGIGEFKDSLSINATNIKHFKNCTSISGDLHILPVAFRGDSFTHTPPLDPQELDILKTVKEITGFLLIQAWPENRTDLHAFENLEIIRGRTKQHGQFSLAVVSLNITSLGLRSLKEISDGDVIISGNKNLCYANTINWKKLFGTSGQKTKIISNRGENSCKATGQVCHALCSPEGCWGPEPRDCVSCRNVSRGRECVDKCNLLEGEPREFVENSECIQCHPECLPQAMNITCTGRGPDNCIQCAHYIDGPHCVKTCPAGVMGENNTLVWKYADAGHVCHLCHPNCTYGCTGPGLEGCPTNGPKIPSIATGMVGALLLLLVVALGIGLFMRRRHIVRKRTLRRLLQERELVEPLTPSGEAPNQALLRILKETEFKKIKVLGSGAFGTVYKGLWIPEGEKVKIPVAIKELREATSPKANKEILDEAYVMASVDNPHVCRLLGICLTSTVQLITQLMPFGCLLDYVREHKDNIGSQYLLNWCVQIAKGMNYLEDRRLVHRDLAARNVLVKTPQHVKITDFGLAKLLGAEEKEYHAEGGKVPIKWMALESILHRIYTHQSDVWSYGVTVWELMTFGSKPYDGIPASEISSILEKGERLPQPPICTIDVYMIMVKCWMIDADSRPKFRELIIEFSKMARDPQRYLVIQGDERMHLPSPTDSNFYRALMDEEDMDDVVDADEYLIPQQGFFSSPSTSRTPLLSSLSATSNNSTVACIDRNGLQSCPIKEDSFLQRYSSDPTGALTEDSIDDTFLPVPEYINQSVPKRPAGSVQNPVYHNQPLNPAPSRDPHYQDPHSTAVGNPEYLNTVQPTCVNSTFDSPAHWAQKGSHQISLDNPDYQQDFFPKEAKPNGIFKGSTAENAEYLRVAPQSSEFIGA
Sequence of EGFR (human) (P00533 whole entry, looked up): as above
Sequence of EGFR (murine) (P00533 whole entry, looked up): as above

Row | Compound | inhibition [1] [%] | IC50 [1] [µM] | also measured
1 | CCOC(=O)CCc1c(S)n(C)c2ccccc12 | 3 |  | 
2 | Cn1c(S)c(C(=O)Nc2ccccc2)c2cc(Cl)ccc21 |  | 9 | 
3 | COC(=O)Cc1c(S)[nH]c2ccccc12 | 43 |  | 
4 | NC(=O)CCc1c(S)[nH]c2ccccc12 |  | 22 | 
5 | O=C(O)CCCc1c(S)[nH]c2ccccc12 |  | 6.8 | 
6 | CCOC(=O)Cc1c(S)n(C)c2ccccc12 | 4 |  | 
7 | COC(=O)CCCc1c(S)n(C)c2ccccc12 | 2 |  | 
8 | Cn1c(S)c(CCCC(=O)O)c2ccccc21 |  | 23 | 
9 | O=C(CCc1c(S)[nH]c2ccccc12)NCc1ccccc1 | 43 |  | 
10 | Cn1c(S)c(CCC(=O)O)c2ccccc21 |  | 8.5 | 
11 | Cn1c(S)c(C(=O)c2ccc(C(=O)O)cc2)c2ccccc21 |  | 8.7 | 
12 | O=C(O)CCc1c(S)[nH]c2ccccc12 |  | 1.3 | 
13 | Cn1c(S)c(C(=O)Nc2ccccc2)c2ccccc21 |  | 1 | IC50 [2]: 64 µM; IC50 [3]: 43 µM; IC50 [4]: 62 µM; IC50 [5]: 30 µM; IC50 [6]: 39 µM; IC50 [7]: 15 µM; IC50 [8]: 55 µM; IC50 [9]: 2 µM
14 | O=C(Cc1c(S)[nH]c2ccccc12)NCc1ccccc1 |  | 25 | 
15 | O=C(O)Cc1c(S)[nH]c2ccccc12 |  | 14.9 | 
16 | CCOC(=O)CCc1c(S)[nH]c2ccccc12 | 10 |  | 
